According to US7799809B2, “Carboxamide compounds and their use as calpain inhibitors” (Abbott GmbH & Co. KG, priority 2006, dated 2010):

How the values were obtained:
Format in all cases: biochemical
cathepsin K = target: T1, cathepsin K (Homo sapiens, UniProt P43235); assay: Cathepsin K enzyme inhibition in vitro (kinetic fluorescence assay); conditions: cathepsin K activated from recombinant human procathepsin K vs calpain I
T1 construct: purchased Calbiochem 342001; host or cells: E. coli
T1 sequence (P43235 115-329): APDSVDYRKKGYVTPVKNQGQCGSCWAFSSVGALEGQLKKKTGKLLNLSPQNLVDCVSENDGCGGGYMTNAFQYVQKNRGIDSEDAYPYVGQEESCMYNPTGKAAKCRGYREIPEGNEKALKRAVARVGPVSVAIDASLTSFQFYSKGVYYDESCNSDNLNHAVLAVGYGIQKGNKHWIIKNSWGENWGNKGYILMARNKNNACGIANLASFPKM

cathepsin L = target: T2, cathepsin L (Homo sapiens, UniProt P07711); assay: Cathepsin L enzyme inhibition in vitro (kinetic fluorescence assay); conditions: cathepsin L isolated from human liver vs calpain I
T2 construct: cathepsin L—isolated from human liver (Calbiochem #219402); purchased Calbiochem 219402; host or cells: human liver (tissue-derived)
Summary of the method: (§1)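 Kinetic fluorescence (ex 390/em 460 nm) at room temperature in 50 mM MES, 2 mM EDTA, 0.05% Brij 35, 2.5 mM L-cysteine, pH 6.0. Cathepsin B (liver, 0.25 nM) with 100 μM Z-Phe-Arg-AMC; cathepsin L (liver, 1 nM) with 2 μM Z-Phe-Arg-AMC; recombinant E. coli cathepsin S (0.5 nM) with 20 μM Z-Val-Val-Arg-AMC. Ki via Cheng-Prusoff.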

cathepsin S = target: T3, cathepsin S (Homo sapiens, UniProt P25774); assay: Cathepsin S enzyme inhibition in vitro (kinetic fluorescence assay); conditions: recombinant human cathepsin S vs calpain I
T3 construct: purchased Calbiochem 219343; host or cells: E. coli
Summary of the method: as §1

cathepsin B = target: T4, cathepsin B (Homo sapiens, UniProt P07858); assay: Cathepsin B enzyme inhibition in vitro (kinetic fluorescence assay); conditions: cathepsin B isolated from human liver vs calpain I
T4 construct: cathepsin B—isolated from human liver (Calbiochem #219362); purchased Calbiochem 219362; host or cells: human liver (tissue-derived)
Summary of the method: as §1

T2 sequence (P07711 114-333): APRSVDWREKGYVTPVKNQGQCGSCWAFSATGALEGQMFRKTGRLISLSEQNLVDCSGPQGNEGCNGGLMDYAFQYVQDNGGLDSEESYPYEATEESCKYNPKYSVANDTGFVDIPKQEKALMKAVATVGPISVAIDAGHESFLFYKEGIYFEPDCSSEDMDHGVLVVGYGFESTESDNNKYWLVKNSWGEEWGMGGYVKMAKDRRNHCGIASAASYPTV
T3 sequence (P25774 115-331): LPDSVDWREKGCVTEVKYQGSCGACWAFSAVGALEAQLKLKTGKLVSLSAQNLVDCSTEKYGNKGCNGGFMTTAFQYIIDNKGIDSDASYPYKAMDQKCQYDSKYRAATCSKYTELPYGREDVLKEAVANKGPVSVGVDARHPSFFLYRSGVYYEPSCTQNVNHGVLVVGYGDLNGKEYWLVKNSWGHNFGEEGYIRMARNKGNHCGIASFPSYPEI

Row | SMILES | Sel cat. K: Ki(cathepsin K)/Ki(calpain) ratio (cathepsin K) | Sel cat. L: Ki(cathepsin L)/Ki(calpain) ratio (cathepsin L) | Sel cat. S: Ki(cathepsin S)/Ki(calpain) ratio (cathepsin S) | Sel cat. B: Ki(cathepsin B)/Ki(calpain) ratio (cathepsin B)
1 | NC(=O)C(=O)C(Cc1ccccc1)NC(=O)c1cccnc1-n1ccc(-c2ccccc2OC(F)F)n1 (stereo not shown) [Example 166, N-[3-Amino-2,3-dioxo-1-(phenylmethyl)propyl]-2-(3-{2-[(difluoromethyl)oxy]phenyl}-1H-pyrazol-1-yl)pyridine-3-carboxamide] | ++ (++ means a Ki(cathepsin K)/Ki(calpain) ratio of ≧30) | ++ (++ means a Ki(cathepsin L)/Ki(calpain) ratio of ≧50) | ++ (++ means a Ki(cathepsin S)/Ki(calpain) ratio of ≧100) | + (+ means 10≦Ki(cathepsin B)/Ki(calpain)<30)
2 | NC(=O)C(=O)C(Cc1ccccc1)NC(=O)c1cccnc1-n1ccc(-c2cccc(Cl)c2Cl)n1 (stereo not shown) [Example 115, N-[3-Amino-2,3-dioxo-1-(phenylmethyl)propyl]-2-[3-(2,3-dichlorophenyl)-1H-pyrazol-1-yl]pyridine-3-carboxamide] | ++ (++ means a Ki(cathepsin K)/Ki(calpain) ratio of ≧30) | ++ (++ means a Ki(cathepsin L)/Ki(calpain) ratio of ≧50) | ++ (++ means a Ki(cathepsin S)/Ki(calpain) ratio of ≧100) | ++ (++ means a Ki(cathepsin B)/Ki(calpain) ratio of ≧30)
3 | Cc1c(Cl)ccc2c1-c1nn(-c3ncccc3C(=O)NC(Cc3ccccc3)C(=O)C(N)=O)cc1CO2 (stereo not shown) [Example 143, N-[3-Amino-2,3-dioxo-1-(phenylmethyl)propyl]-2-(8-chloro-9-methylchromeno[4,3-c]pyrazol-2(4H)-yl)pyridine-3-carboxamide] | ++ (++ means a Ki(cathepsin K)/Ki(calpain) ratio of ≧30) | ++ (++ means a Ki(cathepsin L)/Ki(calpain) ratio of ≧50) | ++ (++ means a Ki(cathepsin S)/Ki(calpain) ratio of ≧100) | ++ (++ means a Ki(cathepsin B)/Ki(calpain) ratio of ≧30)
4 | COc1ccc(CC(NC(=O)c2cccnc2-n2ccc(-c3ccc4c(c3)OC(F)(F)O4)n2)C(=O)C(N)=O)cc1 (stereo not shown) [Example 137, N-(3-Amino-1-{[4-(methyloxy)phenyl]methyl}-2,3-dioxopropyl)-2-[3-(2,2-difluoro-1,3-benzodioxol-5-yl)-1H-pyrazol-1-yl]pyridine-3-carboxamide] | + (+ means 10≦Ki(cathepsin K)/Ki(calpain)<30) | ++ (++ means a Ki(cathepsin L)/Ki(calpain) ratio of ≧50) | ++ (++ means a Ki(cathepsin S)/Ki(calpain) ratio of ≧100) | + (+ means 10≦Ki(cathepsin B)/Ki(calpain)<30)
5 | NC(=O)C(=O)C(Cc1ccc(F)cc1)NC(=O)c1cccnc1-n1ccc(-c2ccc(Cl)cc2Cl)n1 (stereo not shown) [Example 114, N-{-3-Amino-1-[(4-fluorophenyl)methyl]-2,3-dioxopropyl}-2-[3-(2,4-dichlorophenyl)-1H-pyrazol-1-yl]pyridine-3-carboxamide] | ++ (++ means a Ki(cathepsin K)/Ki(calpain) ratio of ≧30) | ++ (++ means a Ki(cathepsin L)/Ki(calpain) ratio of ≧50) | ++ (++ means a Ki(cathepsin S)/Ki(calpain) ratio of ≧100) | ++ (++ means a Ki(cathepsin B)/Ki(calpain) ratio of ≧30)
6 | CC(C)c1ccc(-c2ccn(-c3ncccc3C(=O)NC(Cc3ccccc3)C(=O)C(N)=O)n2)cc1 (stereo not shown) [Example 87, N-[3-Amino-2,3-dioxo-1-(phenylmethyl)propyl]-2-{3-[4-(1-methylethyl)phenyl]-1H-pyrazol-1-yl}pyridine-3-carboxamide] | ++ (++ means a Ki(cathepsin K)/Ki(calpain) ratio of ≧30) | ++ (++ means a Ki(cathepsin L)/Ki(calpain) ratio of ≧50) | ++ (++ means a Ki(cathepsin S)/Ki(calpain) ratio of ≧100) | ++ (++ means a Ki(cathepsin B)/Ki(calpain) ratio of ≧30)
7 | COc1ccc(CC(NC(=O)c2cccnc2-n2ccc(-c3cccc(F)c3Cl)n2)C(=O)C(N)=O)cc1 (stereo not shown) [Example 157, N-(3-Amino-1-{[4-(methyloxy)phenyl]methyl}-2,3-dioxopropyl)-2-[3-(2-chloro-3-fluorophenyl)-1H-pyrazol-1-yl]pyridine-3-carboxamide] | ++ (++ means a Ki(cathepsin K)/Ki(calpain) ratio of ≧30) | ++ (++ means a Ki(cathepsin L)/Ki(calpain) ratio of ≧50) | ++ (++ means a Ki(cathepsin S)/Ki(calpain) ratio of ≧100) | ++ (++ means a Ki(cathepsin B)/Ki(calpain) ratio of ≧30)
8 | COc1cc(F)ccc1-c1ccn(-c2ncccc2C(=O)NC(Cc2ccccc2)C(=O)C(N)=O)n1 (stereo not shown) [Example 125, N-[3-Amino-2,3-dioxo-1-(phenylmethyl)propyl]-2-{3-[4-fluoro-2-(methyloxy)phenyl]-1H-pyrazol-1-yl}pyridine-3-carboxamide] | ++ (++ means a Ki(cathepsin K)/Ki(calpain) ratio of ≧30) | ++ (++ means a Ki(cathepsin L)/Ki(calpain) ratio of ≧50) | ++ (++ means a Ki(cathepsin S)/Ki(calpain) ratio of ≧100) | ++ (++ means a Ki(cathepsin B)/Ki(calpain) ratio of ≧30)
9 | COc1ccc(Cl)cc1-c1ccn(-c2ncccc2C(=O)NC(Cc2ccccc2)C(=O)C(N)=O)n1 (stereo not shown) [Example 131, N-[3-Amino-2,3-dioxo-1-(phenylmethyl)propyl]-2-{3-[5-chloro-2-(methyloxy)phenyl]-1H-pyrazol-1-yl}pyridine-3-carboxamide] | ++ (++ means a Ki(cathepsin K)/Ki(calpain) ratio of ≧30) | ++ (++ means a Ki(cathepsin L)/Ki(calpain) ratio of ≧50) | ++ (++ means a Ki(cathepsin S)/Ki(calpain) ratio of ≧100) | ++ (++ means a Ki(cathepsin B)/Ki(calpain) ratio of ≧30)
10 | COc1cc(Cl)ccc1-c1ccn(-c2ncccc2C(=O)NC(Cc2ccccc2)C(=O)C(N)=O)n1 (stereo not shown) [Example 139, N-[3-Amino-2,3-dioxo-1-(phenylmethyl)propyl]-2-{3-[4-chloro-2-(methyloxy)phenyl]-1H-pyrazol-1-yl}pyridine-3-carboxamide] | ++ (++ means a Ki(cathepsin K)/Ki(calpain) ratio of ≧30) | ++ (++ means a Ki(cathepsin L)/Ki(calpain) ratio of ≧50) | ++ (++ means a Ki(cathepsin S)/Ki(calpain) ratio of ≧100) | + (+ means 10≦Ki(cathepsin B)/Ki(calpain)<30)
11 | NC(=O)C(=O)C(Cc1ccc(OCc2ccccc2)cc1)NC(=O)c1cccnc1-n1ccc(-c2ccccc2)n1 (stereo not shown) [Example 127, N-[3-Amino-2,3-dioxo-1-({4-[(phenylmethyl)oxy]phenyl}methyl)propyl]-2-(3-phenyl-1H-pyrazol-1-yl)pyridine-3-carboxamide] | ++ (++ means a Ki(cathepsin K)/Ki(calpain) ratio of ≧30) | ++ (++ means a Ki(cathepsin L)/Ki(calpain) ratio of ≧50) | ++ (++ means a Ki(cathepsin S)/Ki(calpain) ratio of ≧100) | ++ (++ means a Ki(cathepsin B)/Ki(calpain) ratio of ≧30)
12 | COc1ccc(-c2ccn(-c3ncccc3C(=O)NC(Cc3ccccc3)C(=O)C(N)=O)n2)c(OC)c1 (stereo not shown) [Example 117, N-[3-Amino-2,3-dioxo-1-(phenylmethyl)propyl]-2-{3-[2,4-bis(methyloxy)phenyl]-1H-pyrazol-1-yl}pyridine-3-carboxamide] | ++ (++ means a Ki(cathepsin K)/Ki(calpain) ratio of ≧30) | ++ (++ means a Ki(cathepsin L)/Ki(calpain) ratio of ≧50) | ++ (++ means a Ki(cathepsin S)/Ki(calpain) ratio of ≧100) | ++ (++ means a Ki(cathepsin B)/Ki(calpain) ratio of ≧30)
13 | NC(=O)C(=O)C(Cc1ccccc1)NC(=O)c1cccnc1-n1cc2c(n1)-c1cc(Cl)ccc1OC2 (stereo not shown) [Example 140, N-[3-Amino-2,3-dioxo-1-(phenylmethyl)propyl]-2-(8-chlorochromeno[4,3-c]pyrazol-2(4H)-yl)pyridine-3-carboxamide] | ++ (++ means a Ki(cathepsin K)/Ki(calpain) ratio of ≧30) | ++ (++ means a Ki(cathepsin L)/Ki(calpain) ratio of ≧50) | ++ (++ means a Ki(cathepsin S)/Ki(calpain) ratio of ≧100) | + (+ means 10≦Ki(cathepsin B)/Ki(calpain)<30)
